From article PMC6736568, “Discovery of Novel Anti-cryptosporidial Activities From Natural Products by in vitro High-Throughput Phenotypic Screening” (Frontiers in Microbiology, 2019)
Like-named read-outs stand apart in the source and are kept apart here.

Key:
Cryptosporidium parvum = test: qRT-PCR assay of the growth of C. parvum in vitro in HCT-8 host cells (primary and secondary screening, EC50); type: cell-based; details: for Inhibition (%): primary screening at 10 uM; for % Inhibition (3.3 uM): secondary screening at 3.3 uM
[1] = primary screening at 10 uM, from Hs18S ΔCT
[2] = primary screening at 10 uM, treated vs control

## COc1ccc(-c2coc3c4c(c(CC=C(C)C)c(O)c3c2=O)OC(C)(C)C=C4)cc1 [OSAJIN 4'-METHYL ETHER]
Cryptosporidium parvum
  Inhibition (%): -21.87%
HCT-8 host cells (Hs18S); [1]
  Cytotoxicity (%): -2.7%
HCT-8 host cells (Hs18S); [2]
  Hs18S ΔCT: -0.04

## COc1ccc2c(=O)c(-c3ccc(O)cc3)coc2c1 [ISOFORMONONETIN]
Cryptosporidium parvum
  Inhibition (%): -7.36%
HCT-8 host cells (Hs18S); [1]
  Cytotoxicity (%): -21.7%
HCT-8 host cells (Hs18S); [2]
  Hs18S ΔCT: -0.28

## COc1ccc(-c2oc3cc(OC)c(OC)c(OC)c3c(=O)c2OC)cc1OC [HEXAMETHYLQUERCETAGETIN]
Cryptosporidium parvum
  Inhibition (%): 95.76%
  % Inhibition (3.3 uM): -42%
HCT-8 host cells (Hs18S); [1]
  Cytotoxicity (%): 50.3%
HCT-8 host cells (Hs18S); [2]
  Hs18S ΔCT: 1.01

## O=C1CCC[C@@H]2[C@H]3C[C@@H](CN12)[C@@H]1CCCCN1C3.[O-][Cl+3]([O-])([O-])O [LUPANINE PERCHLORATE]
Cryptosporidium parvum
  Inhibition (%): 10.49%
HCT-8 host cells (Hs18S); [1]
  Cytotoxicity (%): -6.1%
HCT-8 host cells (Hs18S); [2]
  Hs18S ΔCT: -0.09

## CC(=O)Oc1ccc2c(C)cc(=O)oc2c1 [ACETYL HYMETOCHROME]
Cryptosporidium parvum
  Inhibition (%): -35.81%
HCT-8 host cells (Hs18S); [1]
  Cytotoxicity (%): -4.5%
HCT-8 host cells (Hs18S); [2]
  Hs18S ΔCT: -0.06

## COc1ccc(-c2coc3c4c(c(CC=C(C)C)c(O)c3c2=O)OC(C)(C)C=C4)cc1OC [POMIFERIN DIMETHYL ETHER]
Cryptosporidium parvum
  Inhibition (%): -58.61%
HCT-8 host cells (Hs18S); [1]
  Cytotoxicity (%): 6.1%
HCT-8 host cells (Hs18S); [2]
  Hs18S ΔCT: 0.09

## COc1cc2cc3c4cc(OC)c(OC)cc4cc[n+]3c(C)c2cc1OC.[Cl-] [CORALYNE CHLORIDE]
Cryptosporidium parvum
  Inhibition (%): -5.22%
HCT-8 host cells (Hs18S); [1]
  Cytotoxicity (%): -23.6%
HCT-8 host cells (Hs18S); [2]
  Hs18S ΔCT: -0.31

## PHYTOL
Cryptosporidium parvum
  Inhibition (%): -12.94%
HCT-8 host cells (Hs18S); [1]
  Cytotoxicity (%): -33.6%
HCT-8 host cells (Hs18S); [2]
  Hs18S ΔCT: -0.42

## COc1cc(OC)c2c(=O)c(OC)c(-c3ccccc3)oc2c1 [GALANGIN TRIMETHYL ETHER]
Cryptosporidium parvum
  Inhibition (%): -18.22%
HCT-8 host cells (Hs18S); [1]
  Cytotoxicity (%): 8.8%
HCT-8 host cells (Hs18S); [2]
  Hs18S ΔCT: 0.13

## C[C@]12CC[C@H](O)C[C@@H]1CC[C@@H]1[C@@H]2CC[C@]2(C)C(=O)CC[C@@H]12 [EPIANDROSTERONE]
Cryptosporidium parvum; Cryptosporidium parvum, HCT-8
  inhibition at 10 µM: -36%
HCT-8 host cells (Hs18S)
  Hs18S ΔCT: -0.05

## CC(=O)O[C@@H]1C[C@]2(C)[C@@H](C(C)=O)CC[C@H]2[C@@H]2CCC3=CC(=O)CC[C@]3(C)[C@H]21 [11a-ACETOXYPROGESTERONE]
Cryptosporidium parvum
  Inhibition (%): 10.83%
HCT-8 host cells (Hs18S); [1]
  Cytotoxicity (%): -16.6%
HCT-8 host cells (Hs18S); [2]
  Hs18S ΔCT: -0.22

## CC1=C(/C=C/C(C)=C/C=C/C(C)=C/C=C/C=C(C)/C=C/C=C(C)/C=C/C2=C(C)C(=O)CCC2(C)C)C(C)(C)CCC1=O [CANTHAXANTHIN, CANTHAXANTHIN (euglenanone)]
Cryptosporidium parvum
  Inhibition (%): 52.72%
HCT-8 host cells (Hs18S); 10 µM
  Cytotoxicity (%): -19.8%

## CC(=O)[C@@]1(O)CC[C@H]2[C@@H]3CCC4=CC(=O)CC[C@]4(C)[C@H]3CC[C@@]21C [HYDROXYPROGESTERONE]
Cryptosporidium parvum
  Inhibition (%): -50.17%
HCT-8 host cells (Hs18S); [1]
  Cytotoxicity (%): 22.7%
HCT-8 host cells (Hs18S); [2]
  Hs18S ΔCT: 0.37

## VERATRINE SULFATE
Cryptosporidium parvum
  Inhibition (%): 25.98%
HCT-8 host cells (Hs18S)
  Hs18S ΔCT: -0.06
HCT-8 host cells (Hs18S); 10 µM
  Cytotoxicity (%): -4.3

## COc1cc2c(cc1OC)-c1c(oc3cc(O)cc(O)c3c1=O)CO2 [APOTOXICAROL]
Cryptosporidium parvum
  Inhibition (%): 1.64%
HCT-8 host cells (Hs18S); [1]
  Cytotoxicity (%): 10.7%
HCT-8 host cells (Hs18S); [2]
  Hs18S ΔCT: 0.16

## COc1ccc2c(c1O)-c1c(OC)c(OC)cc3c1[C@H](C2)N(C)CC3 [S-ISOCORYDINE (+)]
Cryptosporidium parvum
  Inhibition (%): -15.72%
HCT-8 host cells (Hs18S); [1]
  Cytotoxicity (%): -47.4%
HCT-8 host cells (Hs18S); [2]
  Hs18S ΔCT: -0.56

## Cl.c1ccc2c(c1)CN1CCCC1=N2 [DEOXYPEGANINE HYDROCHLORIDE]
Cryptosporidium parvum
  Inhibition (%): 36.29%
HCT-8 host cells (Hs18S)
  Hs18S ΔCT: -0.06
HCT-8 host cells (Hs18S); 10 µM
  Cytotoxicity (%): -4.6

## ABAMECTIN (avermectin B1a shown)
Cryptosporidium parvum
  Inhibition (%): 97.65%
  % Inhibition (3.3 uM): -19%
HCT-8 host cells (Hs18S); [1]
  Cytotoxicity (%): 33.4%
HCT-8 host cells (Hs18S); [2]
  Hs18S ΔCT: 0.59

## POLYMYXIN B SULFATE
Cryptosporidium parvum
  Inhibition (%): -11.86%
HCT-8 host cells (Hs18S); [1]
  Cytotoxicity (%): -15.1%
HCT-8 host cells (Hs18S); [2]
  Hs18S ΔCT: -0.20

## COc1cc2c(cc1OC)Cc1cc(OC)c(OC)cc1Cc1cc(OC)c(OC)cc1C2 [CYCLOVERATRYLENE]
Cryptosporidium parvum
  Inhibition (%): 83.81%
  % Inhibition (3.3 uM): -85%
HCT-8 host cells (Hs18S); [1]
  Cytotoxicity (%): -2.2%
HCT-8 host cells (Hs18S); [2]
  Hs18S ΔCT: -0.03

## NCCc1ccc(O)c(O)c1 [3-HYDROXYTYRAMINE]
Cryptosporidium parvum
  % Inhibition (3.3 uM): 6%
HCT-8 host cells (Hs18S)
  Hs18S ΔCT: 0.76
HCT-8 host cells (Hs18S); 10 µM
  Cytotoxicity (%): 41.1
